Converted amounts (≈) assume the structure as drawn. The source made the active and inactive calls. The rule behind the calls is not given here.
Legend:
L1210 = assay: Cytotoxicity against mouse L1210 cells; assay type: functional, cell-based
Saccharomyces cerevisiae [1] = assay: Antifungal activity against Saccharomyces cerevisiae YAT2285 erg6 mutant at <1.0 ug/disk by paper disk method; assay type: functional, organism-based
Saccharomyces cerevisiae [2] = assay: Antifungal activity against Saccharomyces cerevisiae YAT2285 erg6 mutant at 100 ug/disk by paper disk method; assay type: functional, organism-based
Saccharomyces cerevisiae [3] = assay: Antifungal activity against Saccharomyces cerevisiae YAT2285 erg6 mutant at 30 ug/disk by paper disk method; assay type: functional, organism-based

With `O=C1NC(=O)C(Br)=C1Br` the IC50 (L1210) was 0.66 µg/mL (≈ 2.59 µM) and the Activity (Saccharomyces cerevisiae [1]) was “Active”.
`O=C1C=C(Br)C(=O)N1` was tested, and the IC50 (L1210) was 1.1 µg/mL (≈ 6.25 µM) and the Activity (Saccharomyces cerevisiae [1]) was “Active”.
For `C[N+]1=CN[C@H](C(=O)[O-])C[C@@]1(C)COC(=O)c1cc(Br)c[nH]1`, the Activity (Saccharomyces cerevisiae [2]) was “Active”.
For `NC1=NC2c3c([nH]c(Br)c3Br)C(=O)N3C[C@H](Cl)[C@H](O)C23N1` (some centres not stated), the IC50 (L1210) was 2.5 µg/mL (≈ 5.69 µM) and the Activity (Saccharomyces cerevisiae [3]) was “Active”.

Reference: ChEMBL document CHEMBL1156398, “Four new bioactive pyrrole-derived alkaloids from the marine sponge Axinella brevistyla” (J Nat Prod, 2001)
